{
  "source": "patent US12312599B2",
  "about": "“Methods, compositions, and kits for producing beige adipocytes and treating metabolic disorders” (MaineHealth, priority 2018, dated 2025)",
  "test_system": "Primary human subcutaneous white adipocytes",
  "experiment": "UCP1 qPCR in primary human subcutaneous white adipocytes",
  "assay_type": "cell-based",
  "settings": "treated with SB",
  "description": "All primary cell lines isolated from WAT were generated from outgrowth of the stromal vascular fraction and purchased from commercial vendors. All cell lines were validated to be at least 95% positive for adipogenic precursors as determined by flow cytometry for PDGFRα. Human white preadipocytes (HWP-c) cells, purchased from PromoCell (C-12730), were isolated from subcutaneous adipose tissue of a person with a BMI of 28. Normal human preadipocytes, purchased from Lonza (PT-5020), were isolated from subcutaneous adipose tissue of a person with a BMI of 21. Type 2 diabetic human preadipocytes, purchased from Lonza (PT-5022), were isolated from subcutaneous adipose tissue of a person with a BMI of 42.1. Type 2 diabetic human preadipocytes, purchased from Zenbio (OPD-F-3), were isolated from omental adipose tissue of a person with a BMI of 38.6. Type 2 diabetic human preadipocytes, purchased from Zenbio (SPD-F-3), were isolated from subcutaneous adipose tissue of a person with a BMI of 53.5. Cryopreserved cells were thawed and seeded in a 100×20 mm TC dish and treated as passage 0. Primary adipogenic precursors were expanded in DMEM containing 10% fetal bovine serum. Medium was changed daily and cells were cultured at 37° C. in a 5% CO2 incubator. Upon 80% confluence, cells are split and passaged at a ratio of 1:6 (Passage 1). […]",
  "data": [
    {"smiles": "NC(=O)c1ccc(-c2nc(-c3ccc4c(c3)OCO4)c(-c3ccccn3)[nH]2)cc1", "note": "[SB, SB431542]", "values": [
      {"measurement": "UCP1 expression", "result": "enhanced expression"}
    ]}
  ]
}
